Laboratory results: ChEMBL document CHEMBL6109090, “Design, synthesis, and biological evaluation of novel and highly potent peptides targeting syntenin” (Eur J Med Chem, 2025)
Blank lines part the entries; values can stand above or below the compound they belong to. The source made the active and inactive calls. The calls are words filed in the database; no cut-off is given here. Non-standard residues stand in square brackets, D forms with d. Residues, ends and D or L forms follow the SMILES beside them. Phg = N[C@H](C(=O)O)c1ccccc1

Assays:
[1] = Antiproliferative activity against human SK-RC-20 cells assessed as inhibition of cell growth measured at 72 hrs by MTT assay; type: functional, cell-based; settings: SK-RC-20, 72 h
[2] = Binding affinity to Syntenin PDZ1 domain (unknown origin) assessed as dissociation constant by MST analysis; parameters: species or system Homo sapiens
[3] = Antiproliferative activity against human SK-RC-20 cells assessed as inhibition of cell growth measured at 24 hrs by MTT assay; type: functional, cell-based; settings: SK-RC-20, 24 h
[4] = Antiproliferative activity against human SK-RC-20 cells assessed as inhibition of cell growth measured at 48 hrs by MTT assay; type: functional, cell-based; settings: SK-RC-20, 48 h
[5] = Stability in mouse serum at 5 uM measured after 4 hrs by HPLC analysis; type: ADME, cell-free; settings: for Stability: serum, 4 h, 5 µM
SK-RC-20 [6] = experiment: Downregulation of MMP2 mRNA expression in human SK-RC-20 cells at 50 to 100 nM by RT-PCR analysis; type: functional, cell-based; settings: dose 50-100 nM
UO-31 = experiment: Antiproliferative activity against human UO-31 cells assessed as inhibition of cell growth measured after 24 to 72 hrs by MTT assay; type: functional, cell-based; settings: time 24-72 hrs
SK-RC-20 [7] = experiment: Downregulation of MT1-MMP mRNA expression in human SK-RC-20 cells at 50 to 100 nM by RT-PCR analysis; type: functional, cell-based; settings: dose 50-100 nM
SK-RC-20 [8] = experiment: Antitumor activity in human SK-RC-20 cells xenografted in male BALB/c nude mouse model assessed as inhibition of tumor growth at 15 mg/kg measured every three days for 15 days; type: functional, organism-based; settings: time 15.0 day
[9] = Toxicity in male BALB/c nude mouse assessed as change in body weight at 5 to 15 mg/kg measured every three days for 15 days; type: organism-based; settings: in vivo, 360 h, dose 5-15 mg/kg, time 15 day
CAKI-1 = experiment: Antiproliferative activity against human CAKI-1 cells assessed as inhibition of cell growth measured after 24 to 72 hrs by MTT assay; type: functional, cell-based; settings: time 24-72 hrs
KMRC-1 = experiment: Antiproliferative activity against human KMRC-1 cells assessed as inhibition of cell growth measured after 24 to 72 hrs by MTT assay; type: functional, cell-based; settings: time 24-72 hrs
SK-RC-20 [10] = experiment: Binding affinity to immobilized Syntenin in human SK-RC-20 cells at 5 uM incubated for 2 hrs by pull down assay; type: cell-based
SK-RC-20 [11] = experiment: Antitumor activity in human SK-RC-20 cells xenografted in male BALB/c nude mouse model assessed as reduction in tumor volume at 5 to 15 mg/kg measured every three days for 15 days; type: functional, organism-based; settings: dose 5-15 mg/kg, time 15.0 day
A498 = experiment: Antiproliferative activity against human A498 cells assessed as inhibition of cell growth measured after 24 to 72 hrs by MTT assay; type: functional, cell-based; settings: time 24-72 hrs

Structure (SMILES): CC[C@H](C)[C@H](NC(=O)[C@H](CC(=O)O)NC(=O)[C@@H](NC(=O)[C@@H](NC(=O)[C@H](Cc1c[nH]c2ccccc12)NC(=O)[C@H](Cc1cnc[nH]1)NC(=O)[C@H](CO)NC(=O)[C@@H](CCCNC(=N)N)NC(=O)[C@H](CCCNC(=N)N)NC(=O)[C@@H](CCCNC(=N)N)NC(=O)[C@H](CCCNC(=N)N)NC(=O)[C@@H](CCCNC(=N)N)NC(=O)CNC(=O)[C@@H](CCCNC(=N)N)NC(=O)[C@H](CCCNC(=N)N)NC(=O)[C@@H](CCCNC(=N)N)NC(C)=O)C(C)(C)C)C1CCCCC1)C(=O)O
IC50 [1]: 9.71 µM
Kd [2]: 0.0003 µM
IC50 [3]: 22.1 µM
IC50 [4]: 14.4 µM
Stability [5]: Unstable

Structure (SMILES): CC[C@H](C)[C@H](NC(=O)[C@H](CC(=O)O)NC(=O)[C@H](NC(=O)[C@@H](NC(=O)[C@H](Cc1c[nH]c2ccccc12)NC(=O)[C@@H](CCCCN)NC(=O)[C@@H](NC(C)=O)[C@@H](C)O)C(C)C)C(C)C)C(N)=O
Kd [2]: 0.0197 µM

Structure (SMILES): CC[C@H](C)[C@H](NC(=O)[C@H](CC(=O)O)NC(=O)[C@@H](NC(=O)[C@@H](NC(=O)[C@H](Cc1cnc[nH]1)NC(=O)[C@@H](CCCCN)NC(=O)[C@@H](NC(C)=O)[C@@H](C)O)C(C)C)c1ccccc1)C(N)=O
Kd [2]: 0.0341 µM

Structure (SMILES): CC[C@H](C)[C@H](NC(=O)[C@H](CC(=O)O)NC(=O)[C@@H](NC(=O)[C@@H](NC(=O)[C@H](Cc1c[nH]c2ccccc12)NC(=O)[C@H](Cc1cnc[nH]1)NC(=O)[C@@H](N)CO)[C@@H](C)O)[C@@H](C)CC)C(=O)O (H-SHWTIDI-OH)
Stability [5]: Unstable

The remaining compounds from weak to strong by Kd [2], led by results:

Kd [2]: 0.0283 µM
Structure (SMILES): CC[C@H](C)[C@H](NC(=O)[C@@H](NC(=O)[C@@H](NC(=O)[C@@H](NC(=O)[C@H](Cc1c[nH]c2ccccc12)NC(=O)[C@@H](CCCCN)NC(=O)[C@@H](NC(C)=O)[C@@H](C)O)C(C)C)c1ccccc1)C(C)C)C(N)=O

Kd [2]: 0.0152 µM
Structure (SMILES): CC[C@H](C)[C@H](NC(=O)[C@H](CC(=O)O)NC(=O)[C@@H](NC(=O)[C@@H](NC(=O)[C@H](Cc1c[nH]c2ccccc12)NC(=O)[C@H](NC(=O)[C@@H](NC(C)=O)[C@@H](C)O)C(C)C)C(C)C)c1ccccc1)C(N)=O

Kd [2]: 0.00907 µM
Structure (SMILES): CC[C@H](C)[C@H](NC(=O)[C@H](CC(=O)O)NC(=O)[C@@H](NC(=O)[C@@H](NC(=O)[C@H](Cc1c[nH]c2ccccc12)NC(=O)[C@@H](CCCCN)NC(=O)[C@H](C)NC(C)=O)C(C)C)c1ccccc1)C(N)=O

Kd [2]: 0.00615 µM
remaining at 4 h, 5 µM ([5]; mouse serum, read-out: Stability): ~80%
Structure (SMILES): CC[C@H](C)[C@H](NC(=O)[C@H](CC(=O)O)NC(=O)[C@@H](NC(=O)[C@@H](NC(=O)[C@H](Cc1c[nH]c2ccccc12)NC(=O)[C@H](CCCCN)NC(=O)[C@@H](NC(C)=O)[C@@H](C)O)C(C)C)c1ccccc1)C(N)=O (Ac-TKWV[Phg]DI-NH2)
Activity (SK-RC-20 [6]): Active
Activity (UO-31): Active
Activity (SK-RC-20 [7]): Active
IC50 [1]: 0.56 µM
Activity (SK-RC-20 [8]): Active
Activity [9]: Toxic
Activity (CAKI-1): Active
Activity (KMRC-1): Active
IC50 [3]: 1.24 µM
IC50 [4]: 0.91 µM
Activity (SK-RC-20 [10]): Active
Activity (SK-RC-20 [11]): Active
Activity (A498): Active
